Experimental data as given in patent US20120101093A1, “SUBSTITUTED IMIDAZO[1,2-A]PYRIDINE DERIVATIVES, PHARMACEUTICAL COMPOSITIONS, AND METHODS OF USE AS BETA-SECRETASE INHIBITORS” (HIGH POINT PHARMACEUTICALS, LLC, priority 2009, published 2012).

Biological target: T1, BACE-1 enzyme (Homo sapiens, UniProt P56817)
T1 construct: purchased R & D Systems 931AS
Experiment: BACE Fluorescence Resonance Energy Transfer (FRET) Assay
Format: biochemical
Conditions: pH 4-4.5, 30 min pre-incubation, about 1.5 hours reaction
Procedure: BACE Fluorescence Resonance Energy Transfer (FRET) Assay
In the following assay, the proteolytic activity of BACE is measured by observing cleavage of a fluorescent group from a peptide substrate containing a rhodamine fluorescent donor and a quenching acceptor.
The inhibitory activity of compounds of Formula (I) may be compared to a statine derived control inhibitor STA200 (MP Biomedical Cat. #STA-200). The cleavage reaction occurs when a BACE-1 substrate (Invitrogen, Cat. #P2986) was added to a reaction mixture containing BACE-1 enzyme (R & D Systems, Cat. #931AS) and allowed to proceed for about 1.5 hours. Fluorescence, used as a marker of BACE activity, is monitored using 540 nm excitation and 585 nm emission wavelengths (Envision, Perkin Elmer).
A typical assay reaction contains BACE-1 enzyme—in assay buffer (50 mM sodium acetate, pH 4-4.5, 0.01% CHAPS (3-[(3-Cholamidopropyl)dimethylammonio]-1-propanesulfonate), 0.0125% TritonX-100, 0.006% EDTA) which is pre-incubated for 30 minutes with test compound in 7.5% DMSO. The reaction is initiated with the addition of BACE-1 substrate in assay buffer and allowed to proceed for about 1.5 hours at room temperature. Assays are conducted in black 384-well microtiter plates and scanned at room temperature using 540 nm excitation and 585 nm emission wavelengths.
In some instances, the percent inhibition at a given concentration is reported instead of the IC50.

T1 sequence (P56817 46-457 limits assumed): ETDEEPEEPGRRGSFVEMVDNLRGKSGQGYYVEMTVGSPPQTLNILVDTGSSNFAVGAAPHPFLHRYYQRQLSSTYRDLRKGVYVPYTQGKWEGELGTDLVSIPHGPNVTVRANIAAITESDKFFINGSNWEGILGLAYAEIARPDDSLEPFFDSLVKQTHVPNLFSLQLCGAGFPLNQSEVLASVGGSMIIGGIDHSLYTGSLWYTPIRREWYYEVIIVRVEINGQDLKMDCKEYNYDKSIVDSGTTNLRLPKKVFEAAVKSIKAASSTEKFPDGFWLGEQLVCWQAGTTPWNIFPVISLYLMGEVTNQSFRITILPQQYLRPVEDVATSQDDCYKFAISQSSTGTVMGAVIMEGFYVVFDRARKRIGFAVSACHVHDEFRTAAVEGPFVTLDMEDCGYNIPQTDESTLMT

Row | Compound | IC50
1 | CN1CCN(c2cc(F)cn3cc(C(=O)Nc4nc5cc(-c6cc(F)cc(Cl)c6)ccc5[nH]4)nc23)CC1 [Example 128, 6-Fluoro-8-(4-methyl-piperazin-1-yl)-imidazo[1,2-a]pyridine-2-carboxylic acid [5-(3-chloro-5-fluoro-phenyl)-1H-benzoimidazol-2-yl]-amide] | 0.31 µM
2 | CCOc1cc(F)cn2cc(C(=O)Nc3nc4cc(-c5cc(F)cc(Cl)c5)ccc4[nH]3)nc12 [Example 129, 8-Ethoxy-6-fluoro-imidazo[1,2-a]pyridine-2-carboxylic acid [5-(3-chloro-5-fluoro-phenyl)-1H-benzoimidazol-2-yl]-amide] | 0.43 µM
3 | O=C(Nc1nc2cc(-c3cc(F)cc(Cl)c3)ccc2[nH]1)c1cn2cc(F)cc(N3CCNCC3)c2n1 [Example 130, 6-Fluoro-8-piperazin-1-yl-imidazo[1,2-a]pyridine-2-carboxylic acid [5-(3-chloro-5-fluoro-phenyl)-1H-benzoimidazol-2-yl]-amide] | 0.35 µM
4 | CN(C)c1cc(F)cn2cc(C(=O)Nc3nc4cc(-c5cc(F)cc(Cl)c5)ccc4[nH]3)nc12 [Example 131, 8-Dimethylamino-6-fluoro-imidazo[1,2-a]pyridine-2-carboxylic acid [5-(3-chloro-5-fluoro-phenyl)-1H-benzoimidazol-2-yl]-amide] | 1.01 µM
5 | CNc1cc(F)cn2cc(C(=O)Nc3nc4cc(-c5cccc(OC(F)(F)F)c5)ccc4[nH]3)nc12 [Example 132, 6-Fluoro-8-methylamino-imidazo[1,2-a]pyridine-2-carboxylic acid [5-(3-trifluoromethoxy-phenyl)-1H-benzoimidazol-2-yl]-amide] | 1.04 µM
6 | CN(C)c1cc(F)cn2cc(C(=O)Nc3nc4cc(-c5cccc(OC(F)(F)F)c5)ccc4[nH]3)nc12 [Example 133, 8-Dimethylamino-6-fluoro-imidazo[1,2-a]pyridine-2-carboxylic acid [5-(3-trifluoromethoxy-phenyl)-1H-benzoimidazol-2-yl]-amide] | 0.64 µM
7 | O=C(Nc1nc2cc(-c3cccc(OC(F)(F)F)c3)ccc2[nH]1)c1cn2cc(F)cc(N3CCNCC3)c2n1 [Example 134, 6-Fluoro-8-piperazin-1-yl-imidazo[1,2-a]pyridine-2-carboxylic acid [5-(3-trifluoromethoxy-phenyl)-1H-benzoimidazol-2-yl]-amide] | 0.29 µM
8 | CN1CCN(c2cc(F)cn3cc(C(=O)Nc4nc5cc(-c6cccc(OC(F)(F)F)c6)ccc5[nH]4)nc23)CC1 [Example 135, 6-Fluoro-8-(4-methyl-piperazin-1-yl)-imidazo[1,2-a]pyridine-2-carboxylic acid [5-(3-trifluoromethoxy-phenyl)-1H-benzoimidazol-2-yl]-amide] | 0.2 µM
9 | COc1cc(F)cn2cc(C(=O)Nc3nc4cc(-c5cccc(OC(F)(F)F)c5)ccc4[nH]3)nc12 [Example 136, 6-Fluoro-8-methoxy-imidazo[1,2-a]pyridine-2-carboxylic acid [5-(3-trifluoromethoxy-phenyl)-1H-benzoimidazol-2-yl]-amide] | 0.23 µM
10 | CCOc1cccc2nc(C(=O)Nc3nc4cc(-c5cccc(C(F)(F)F)c5)ccc4[nH]3)cn12 [Example 137, 5-Ethoxy-imidazo[1,2-a]pyridine-2-carboxylic acid [5-(3-trifluoromethyl-phenyl)-1H-benzoimidazol-2-yl]-amide] | 1.39 µM
11 | COCCNc1cc(F)cn2cc(C(=O)Nc3nc4cc(-c5cc(F)cc(Cl)c5)ccc4[nH]3)nc12 [Example 138, 6-Fluoro-8-(2-methoxy-ethylamino)-imidazo[1,2-a]pyridine-2-carboxylic acid [5-(3-chloro-5-fluoro-phenyl)-1H-benzoimidazol-2-yl]-amide] | 1.27 µM
12 | COCCCNc1cc(F)cn2cc(C(=O)Nc3nc4cc(-c5cc(F)cc(Cl)c5)ccc4[nH]3)nc12 [Example 139, 6-Fluoro-8-(3-methoxy-propylamino)-imidazo[1,2-a]pyridine-2-carboxylic acid [5-(3-chloro-5-fluoro-phenyl)-1H-benzoimidazol-2-yl]-amide] | 0.48 µM
13 | COCCOc1cc(F)cn2cc(C(=O)Nc3nc4cc(-c5cc(F)cc(Cl)c5)ccc4[nH]3)nc12 [Example 140, 6-Fluoro-8-(2-methoxy-ethoxy)-imidazo[1,2-a]pyridine-2-carboxylic acid [5-(3-chloro-5-fluoro phenyl)-1H-benzoimidazol-2-yl]-amide] | 0.25 µM
14 | CN(C)CCOc1cc(F)cn2cc(C(=O)Nc3nc4cc(-c5cc(F)cc(Cl)c5)ccc4[nH]3)nc12 [Example 141, 8-(2-Dimethylamino-ethoxy)-6-fluoro-imidazo[1,2-a]pyridine-2-carboxylic acid [5-(3-chloro-5-fluoro-phenyl)-1H-benzoimidazol-2-yl]-amide] | 0.66 µM
15 | CN(C)CCOc1cc(Cl)cn2cc(C(=O)Nc3nc4cc(-c5cc(F)cc(Cl)c5)ccc4[nH]3)nc12 [Example 142, 6-Chloro-8-(2-dimethylamino-ethoxy)-imidazo[1,2-a]pyridine-2-carboxylic acid [5-(3-chloro-5-fluoro-phenyl)-1H-benzoimidazol-2-yl]-amide] | 0.34 µM
16 | O=C(Nc1nc2cc(-c3cc(F)cc(Cl)c3)ccc2[nH]1)c1cn2cc(Cl)cc(Cl)c2n1 [Example 143, 6,8-Dichloro-imidazo[1,2-a]pyridine-2-carboxylic acid [5-(3-chloro-5-fluoro-phenyl)-1H-benzoimidazol-2-yl]-amide] | 1.06 µM
17 | Cc1cc(Cl)c2nc(C(=O)Nc3nc4cc(-c5cc(F)cc(Cl)c5)ccc4[nH]3)cn2c1 [Example 144, 8-Chloro-6-methyl-imidazo[1,2-a]pyridine-2-carboxylic acid [5-(3-chloro-5-fluoro-phenyl)-1H-benzoimidazol-2-yl]-amide] | 0.55 µM
18 | O=C(Nc1nc2cc(-c3cc(F)cc(Cl)c3)ccc2[nH]1)c1cn2cc(F)cc(OCCN3CCOCC3)c2n1 [Example 145, 6-Fluoro-8-(2-morpholin-4-yl-ethoxy)-imidazo[1,2-a]pyridine-2-carboxylic acid [5-(3-chloro-5-fluoro-phenyl)-1H-benzoimidazol-2-yl]-amide] | 0.52 µM
19 | Cc1cc(OCCN(C)C)c2nc(C(=O)Nc3nc4cc(-c5cc(F)cc(Cl)c5)ccc4[nH]3)cn2c1 [Example 146, 8-(2-Dimethylamino-ethoxy)-6-methyl-imidazo[1,2-a]pyridine-2-carboxylic acid [5-(3-chloro-5-fluoro-phenyl)-1H-benzoimidazol-2-yl]-amide] | 0.32 µM
20 | O=C(Nc1nc2cc(-c3cc(F)cc(Cl)c3)ccc2[nH]1)c1cn2cc(F)cc(OCCN3CCCCC3)c2n1 [Example 147, 6-Fluoro-8-(2-piperidin-1-yl-ethoxy)-imidazo[1,2-a]pyridine-2-carboxylic acid [5-(3-chloro-5-fluoro-phenyl)-1H-benzoimidazol-2-yl]-amide] | 0.41 µM
21 | CN1CCN(CCOc2cc(F)cn3cc(C(=O)Nc4nc5cc(-c6cc(F)cc(Cl)c6)ccc5[nH]4)nc23)CC1 [Example 148, 6-Fluoro-8-[2-(4-methyl-piperazin-1-yl)-ethoxy]-imidazo[1,2-a]pyridin-2-carboxylic acid [5-(3-chloro-5-fluoro-phenyl)-1H-benzoimidazol-2-yl]-amide] | 0.39 µM
22 | Cc1cc(OCCN2CCCCC2)c2nc(C(=O)Nc3nc4cc(-c5cc(F)cc(Cl)c5)ccc4[nH]3)cn2c1 [Example 149, 6-Methyl-8-(2-piperidin-1-yl-ethoxy)-imidazo[1,2-a]pyridine-2-carboxylic acid [5-(3-chloro-5-fluoro-phenyl)-1H-benzoimidazol-2-yl]-amide] | 0.57 µM
23 | Cc1cc(OCCN2CCN(C)CC2)c2nc(C(=O)Nc3nc4cc(-c5cc(F)cc(Cl)c5)ccc4[nH]3)cn2c1 [Example 150, 6-Methyl-8-[2-(4-methyl-piperazin-1-yl)-ethoxy]-imidazo[1,2-a]pyridine-2-carboxylic acid [5-(3-chloro-5-fluoro-phenyl)-1H-benzoimidazol-2-yl]-amide] | 0.46 µM
24 | COc1cccn2cc(C(=O)Nc3nc4cc(-c5cc(F)cc(Cl)c5)ccc4[nH]3)nc12 [Example 151, 8-Methoxy-imidazo[1,2-a]pyridine-2-carboxylic acid [5-(3-chloro-5-fluoro-phenyl)-1H-benzoimidazol-2-yl]-amide] | 0.31 µM
25 | O=C(Nc1nc2cc(-c3cc(F)cc(Cl)c3)ccc2[nH]1)c1cn2cc(F)cc(N3CC[C@H](O)C3)c2n1 [Example 152, 6-Fluoro-8-((S)-3-hydroxy-pyrrolidin-1-yl)-imidazo[1,2-a]pyridine-2-carboxylic acid [5-(3-chloro-5-fluoro-phenyl)-1H-benzoimidazol-2-yl]-amide] | 1.53 µM
26 | O=C(Nc1nc2cc(-c3cc(F)cc(Cl)c3)ccc2[nH]1)c1cn2cc(F)cc(N3CC[C@@H](O)C3)c2n1 [Example 153, 6-Fluoro-8-((R)-3-hydroxy-pyrrolidin-1-yl)-imidazo[1,2-a]pyridine-2-carboxylic acid [5-(3-chloro-5-fluoro-phenyl)-1H-benzoimidazol-2-yl]-amide] | 1.83 µM
27 | O=C(Nc1nc2cc(-c3cc(F)cc(Cl)c3)ccc2[nH]1)c1cn2cc(F)cc(N3CCC(O)CC3)c2n1 [Example 154, 6-Fluoro-8-(4-hydroxy-piperidin-1-yl)-imidazo[1,2-a]pyridine-2-carboxylic acid [5-(3-chloro-5-fluoro-phenyl)-1H-benzoimidazol-2-yl]-amide] | 1.33 µM
